Measurements: patent publication US20240307350A1, “5-METHOXY-N,N-DIMETHYLTRYPTAMINE (5-MEO-DMT) FOR TREATING DEPRESSION” (GH RESEARCH IRELAND LIMITED, priority 2019, published 2024)

Tests used:
[1] = tested on: patients with personality trait disturbance or anxiety; settings: LSD as an aid to psychotherapy; cited from earlier work
[2] = tested on: patients with alcohol dependence; settings: therapy with LSD; cited from earlier work
[3] = Clinical trial in healthy volunteers: 5-MeO-DMT and bufotenine plasma levels; assay type: in vivo, human; settings: all other samples (1 hour and 3 hours) after inhaled 5-MeO-DMT
Description: A clinical trial was performed in which 5-MeO-DMT free base (purity not less than 99%) at different dose levels was administered via inhalation (as described in Example 1) in a single day to healthy volunteers who had prior experiences with the use of synthetic or naturally-occurring psychedelics. The trial was reviewed and approved by the relevant national competent authority and local medical ethics committee. The trial consisted of two parts: Part A, where single doses of 5-MeO-DMT dosage amounts of 2 mg, 6 mg, 12 mg and 18 mg were administered; and Part B, where an initial 5-MeO-DMT dosage amount of 6 mg was administered, and then, unless the participant had already experienced a peak psychedelic experience based on the PPEQ or the supervising physician had decided that further dose increases were inappropriate based on observed side effects, further subsequent dosage amounts of 12 mg and 18 mg were administered with about 3 hours in between each administration. Participants in Part A only received one dose and were not allowed to receive higher doses in later parts of Part A and were not allowed to participate in Part B. Participants were closely monitored for 3.5 hours after the last dose, with additional follow-up visits 1 day and 7 days after dosing. Various safety related measures (e.g., adverse event reporting, safety laboratory analyses, vital signs, ECG, CADSS, PVT, DSST, Prospective Memory Task (PMT)) as well as measures of the intensity of the psychedelic effects (MEQ30, ASC, PPEQ, subjective description of the psychedelic experience) were recorded. Pharmacokinetic analysis of 5-MeO-DMT and bufotenine plasma levels was performed at 1 hour and 3 hours after drug administration in Part A, and at 3 hours after drug administration in Part B.

[4] = target: 5-HT2A receptor (Homo sapiens, UniProt P28223); settings: compared with 5-MeO-DMT; cited from earlier work
Chain of 5-HT2A receptor (P28223 whole entry): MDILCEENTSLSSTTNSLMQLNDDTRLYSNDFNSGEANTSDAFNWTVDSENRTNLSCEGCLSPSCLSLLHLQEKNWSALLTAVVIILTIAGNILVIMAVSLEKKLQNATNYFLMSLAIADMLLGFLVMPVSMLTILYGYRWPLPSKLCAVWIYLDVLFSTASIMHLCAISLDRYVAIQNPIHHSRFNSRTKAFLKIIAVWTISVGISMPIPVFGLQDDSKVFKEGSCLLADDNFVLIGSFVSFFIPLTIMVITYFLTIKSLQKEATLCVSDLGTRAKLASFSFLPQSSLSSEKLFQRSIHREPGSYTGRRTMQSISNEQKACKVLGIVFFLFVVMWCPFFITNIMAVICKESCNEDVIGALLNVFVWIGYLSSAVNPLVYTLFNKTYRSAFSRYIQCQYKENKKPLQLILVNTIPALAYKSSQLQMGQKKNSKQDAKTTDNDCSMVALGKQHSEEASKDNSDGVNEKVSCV

CCN(CC)C(=O)[C@@H]1C=C2c3cccc4[nH]cc(c34)C[C@H]2N(C)C1 [LSD, lysergic acid diethylamide]
patients with an outcome of "much improved" or "improved" [1]: over 90% | patients changed (stop drinking or are much improved) [2]: 50%

CN(C)CCc1c[nH]c2ccc(O)cc12 [bufotenine]
plasma levels of the 5-MeO-DMT metabolite bufotenine [3]: undetectable | affinity for the 5-HT2A receptor [4]: much higher affinity than 5-MeO-DMT
